Test results reported in ChEMBL document CHEMBL1139448, “Synthesis and antibacterial activity of 7-(substituted)aminomethyl quinolones” (2004).
Converted amounts (≈) assume the structure as drawn.

Tests used:
Format in all cases: functional
Citrobacter freundii = assay: In vitro antibacterial activity against gram-negative Citrobacter freundii
Staphylococcus aureus = assay: In vitro antibacterial activity against gram-positive Staphylococcus aureus
Klebsiella pneumoniae = assay: In vitro antibacterial activity against gram-negative Klebsiella pneumoniae
[1] = system: Staphylococcus epidermidis; assay: In vitro antibacterial activity against gram-positive Staphylococcus epidermidis
Streptococcus pneumoniae = assay: In vitro antibacterial activity against gram-positive Streptococcus pneumoniae
Shigella boydii = assay: In vitro antibacterial activity against gram-negative Shigella boydii

In the case of `O=C(O)c1cn(C2CC2)c2c(F)c(N3CCNCC3)c(F)cc2c1=O`, the MIC (Citrobacter freundii) is reported as 0.049 µg/mL (≈ 0.14 µM), the MIC (Staphylococcus aureus) is reported as 0.195 µg/mL (≈ 0.558 µM) and the MIC (Klebsiella pneumoniae) is reported as 0.049 µg/mL (≈ 0.14 µM). For the same molecule, the MIC [1] was 0.39 µg/mL (≈ 1.12 µM), the MIC (Streptococcus pneumoniae) was 0.049 µg/mL (≈ 0.14 µM) and the MIC (Shigella boydii) was 0.049 µg/mL (≈ 0.14 µM).

`Cl.O=C(O)c1cn(C2CC2)c2c(F)c(CNc3cccc(Cl)c3)c(F)cc2c1=O` gave an MIC (Citrobacter freundii) of 1.56 µg/mL.

With `CN1CCN(Cc2c(F)cc3c(=O)c(C(=O)O)cn(C4CC4)c3c2F)CC1.Cl` the MIC (Citrobacter freundii) was 1.56 µg/mL.

For `Cl.NCc1c(F)cc2c(=O)c(C(=O)O)cn(C3CC3)c2c1F`, the MIC (Citrobacter freundii) was 0.098 µg/mL, the MIC (Staphylococcus aureus) was 12.5 µg/mL and the MIC (Klebsiella pneumoniae) was 0.098 µg/mL. It also gave an MIC [1] of 12.5 µg/mL, an MIC (Streptococcus pneumoniae) of 0.78 µg/mL and an MIC (Shigella boydii) of 0.098 µg/mL.

For `Cl.O=C(O)c1cn(C2CC2)c2c(F)c(CNC3CC3)c(F)cc2c1=O`, the MIC (Citrobacter freundii) was ≤ 0.049 µg/mL.

`CCCNCc1c(F)cc2c(=O)c(C(=O)O)cn(C3CC3)c2c1F.Cl` was tested, and the MIC (Citrobacter freundii) was 0.195 µg/mL.

For `Cl.O=C(O)c1cn(C2CC2)c2c(F)c(CN3CCNCC3)c(F)cc2c1=O`, the MIC (Citrobacter freundii) was 0.195 µg/mL.

In the case of `Cl.O=C(O)c1cn(C2CC2)c2c(F)c(CNc3ccc(F)cc3)c(F)cc2c1=O`, the MIC (Citrobacter freundii) is reported as 0.39 µg/mL.

With `Cl.O=C(O)c1cn(C2CC2)c2c(F)c(CNc3ccc(F)c(Cl)c3)c(F)cc2c1=O` the MIC (Citrobacter freundii) was 0.78 µg/mL.

`Cc1ccc(NCc2c(F)cc3c(=O)c(C(=O)O)cn(C4CC4)c3c2F)cc1.Cl` was tested, and the MIC (Citrobacter freundii) was 0.78 µg/mL.

With `CC(C)NCc1c(F)cc2c(=O)c(C(=O)O)cn(C3CC3)c2c1F.Cl` the MIC (Citrobacter freundii) was 0.098 µg/mL, the MIC (Staphylococcus aureus) was > 6.25 µg/mL and the MIC (Klebsiella pneumoniae) was 0.098 µg/mL. The MIC [1] was > 6.25 µg/mL, the MIC (Streptococcus pneumoniae) was 1.56 µg/mL and the MIC (Shigella boydii) was 0.195 µg/mL.

With `CCNCc1c(F)cc2c(=O)c(C(=O)O)cn(C3CC3)c2c1F.Cl` the MIC (Citrobacter freundii) was ≤ 0.049 µg/mL.

For `Cl.O=C(O)c1cn(C2CC2)c2c(F)c(CNc3ccc(Cl)cc3)c(F)cc2c1=O`, the MIC (Citrobacter freundii) was 1.56 µg/mL.

`Cc1cc(C)nc(NCc2c(F)cc3c(=O)c(C(=O)O)cn(C4CC4)c3c2F)c1.Cl` gave an MIC (Citrobacter freundii) of 0.78 µg/mL.

`Cc1ccc(NCc2c(F)cc3c(=O)c(C(=O)O)cn(C4CC4)c3c2F)cc1C.Cl` was tested, and the MIC (Citrobacter freundii) was 1.56 µg/mL.

`Cl.O=C(O)c1cn(C2CC2)c2c(F)c(CNc3ccccc3)c(F)cc2c1=O` gave an MIC (Citrobacter freundii) of 0.39 µg/mL.

Work on `CCCCNCc1c(F)cc2c(=O)c(C(=O)O)cn(C3CC3)c2c1F.Cl` yielded an MIC (Citrobacter freundii) of 0.098 µg/mL.

With `CCn1cc(C(=O)O)c(=O)c2cc(F)c(N3CCNC(C)C3)c(F)c21` (centres undefined) [LOMEFLOXACIN] the MIC (Citrobacter freundii) was 0.098 µg/mL (≈ 0.279 µM), the MIC (Staphylococcus aureus) was 0.78 µg/mL (≈ 2.22 µM) and the MIC (Klebsiella pneumoniae) was 0.098 µg/mL (≈ 0.279 µM). It also gave an MIC [1] of 0.78 µg/mL (≈ 2.22 µM), an MIC (Streptococcus pneumoniae) of 0.195 µg/mL (≈ 0.555 µM) and an MIC (Shigella boydii) of 0.098 µg/mL (≈ 0.279 µM).

`CN[C@H](CC(C)C)C(=O)N[C@H]1C(=O)N[C@@H](CC(N)=O)C(=O)N[C@H]2C(=O)N[C@H]3C(=O)N[C@H](C(=O)N[C@H](C(=O)O)c4cc(O)cc(O)c4-c4cc3ccc4O)[C@H](O)c3ccc(c(Cl)c3)Oc3cc2cc(c3O[C@@H]2O[C@H](CO)[C@@H](O)[C@H](O)[C@H]2O[C@H]2C[C@](C)(N)[C@H](O)[C@H](C)O2)Oc2ccc(cc2Cl)[C@H]1O` [VANCOMYCIN] was tested, and the MIC (Citrobacter freundii) was > 6.25 µg/mL.
